Assay results published in PubChem BioAssay (NCI).
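48-hour exposure; five concentrations; linearly interpolated endpoints. GI50 is the concentration that inhibits growth by half. TGI is the concentration that stops growth completely.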

Tests used:
Test in all cases: growth of human tumour cells (NCI), 48 h
[1] = tested on: 786-0 renal
[2] = tested on: A498 renal
[3] = tested on: A549 NSCLC
[4] = tested on: ACHN renal
[5] = tested on: BT-549 breast
[6] = tested on: CAKI-1 renal
[7] = tested on: CCRF-CEM leukemia
[8] = tested on: COLO 205 colon
[9] = tested on: DU-145 prostate
[10] = tested on: EKVX NSCLC
[11] = tested on: HCC-2998 colon
[12] = tested on: HCT-116 colon
[13] = tested on: HCT-15 colon
[14] = tested on: HL-60(TB) leukemia
[15] = tested on: HOP-62 NSCLC
[16] = tested on: HOP-92 NSCLC
[17] = tested on: HS 578T breast
[18] = tested on: HT29 colon
[19] = tested on: IGROV1 ovarian
[20] = tested on: K-562 leukemia
[21] = tested on: KM12 colon
[22] = tested on: LOX IMVI melanoma
[23] = tested on: M14 melanoma
[24] = tested on: MCF7 breast
[25] = tested on: MDA-MB-231 breast
[26] = tested on: MDA-MB-435
[27] = tested on: MOLT-4 leukemia
[28] = tested on: NCI-H226 lung
[29] = tested on: NCI-H23 lung
[30] = tested on: NCI-H522 lung
[31] = tested on: NCI/ADR-RES ovarian
[32] = tested on: OVCAR-3 ovarian
[33] = tested on: OVCAR-4 ovarian
[34] = tested on: OVCAR-5 ovarian
[35] = tested on: OVCAR-8 ovarian
[36] = tested on: PC-3 prostate
[37] = tested on: RPMI-8226 leukemia
[38] = tested on: RXF 393 renal
[39] = tested on: SF-268 CNS
[40] = tested on: SF-295 CNS
[41] = tested on: SF-539 CNS
[42] = tested on: SK-MEL-2 melanoma
[43] = tested on: SK-MEL-28 melanoma
[44] = tested on: SK-MEL-5 melanoma
[45] = tested on: SK-OV-3 ovarian
[46] = tested on: SN12C renal
[47] = tested on: SNB-19 CNS
[48] = tested on: SNB-75 CNS
[49] = tested on: SR leukemia
[50] = tested on: SW-620 colon
[51] = tested on: T-47D breast
[52] = tested on: TK-10 renal
[53] = tested on: U251 CNS
[54] = tested on: UACC-257 melanoma
[55] = tested on: UACC-62 melanoma
[56] = tested on: UO-31 renal
[57] = tested on: MALME-3M melanoma
[58] = tested on: NCI-H460 lung

## Oc1ccc2c(c1)-c1c(c3cc(O)ccc3n1CCN1CCOCC1)CC2
[1]
  TGI: 53.3 µM
[2]
  TGI: 60 µM
[3]
  TGI: > 100 µM
[4]
  TGI: > 100 µM
[5]
  TGI: 38.2 µM
[6]
  TGI: 70.5 µM
[7]
  TGI: 68.7 µM
[8]
  TGI: 32.2 µM
[9]
  TGI: > 100 µM
[10]
  TGI: > 100 µM
[11]
  TGI: 32.6 µM
[12]
  TGI: 44.8 µM
[13]
  TGI: 45.4 µM
[14]
  TGI: 49.3 µM
[15]
  TGI: 72.7 µM
[16]
  TGI: > 100 µM
[17]
  TGI: > 100 µM
[18]
  TGI: 59.8 µM
[19]
  TGI: > 100 µM
[20]
  TGI: 41 µM
[21]
  TGI: > 100 µM
[22]
  TGI: 35.7 µM
[23]
  TGI: 50.1 µM
[24]
  TGI: 57.8 µM
[25]
  TGI: 44.1 µM
[26]
  TGI: 48.8 µM
[27]
  TGI: 60.4 µM
[28]
  TGI: 41.4 µM
[29]
  TGI: 73.5 µM
[30]
  TGI: 40.4 µM
[31]
  TGI: 73.9 µM
[32]
  TGI: 61.8 µM
[33]
  TGI: 67.2 µM
[34]
  TGI: > 100 µM
[35]
  TGI: 86.8 µM
[36]
  TGI: 54.4 µM
[37]
  TGI: > 100 µM
[38]
  TGI: 75.8 µM
[39]
  TGI: > 100 µM
[40]
  TGI: 47.2 µM
[41]
  TGI: 76 µM
[42]
  TGI: 37.7 µM
[43]
  TGI: 61.9 µM
[44]
  TGI: 30.6 µM
[45]
  TGI: 81.2 µM
[46]
  TGI: > 100 µM
[47]
  TGI: > 100 µM
[48]
  TGI: 58.5 µM
[49]
  TGI: 61.8 µM
[50]
  TGI: 71.2 µM
[51]
  TGI: > 100 µM
[52]
  TGI: > 100 µM
[53]
  TGI: 49 µM
[54]
  TGI: > 100 µM
[55]
  TGI: 32.9 µM
[56]
  TGI: 57.9 µM

## O=c1ccc2nc(-c3ccccc3)nn(-c3ccccc3)c-2c1
[1]
  GI50: 1.84 µM
  TGI: 3.36 µM
[2]
  GI50: 18.1 µM
  TGI: 33.4 µM
[3]
  GI50: 9.26 µM
  TGI: 36.7 µM
[4]
  GI50: 0.47 µM
  TGI: 1.44 µM
[5]
  GI50: 2.19 µM
  TGI: 4.43 µM
[6]
  GI50: 1.5 µM
  TGI: 2.89 µM
[7]
  GI50: 0.274 µM
  TGI: 1.23 µM
[8]
  GI50: 0.589 µM
  TGI: 1.8 µM
[9]
  GI50: 1.92 µM
  TGI: 3.37 µM
[11]
  GI50: 5.13 µM
  TGI: 12.3 µM
[12]
  GI50: 0.79 µM
  TGI: 2.08 µM
[13]
  GI50: 0.775 µM
  TGI: 2.43 µM
[14]
  GI50: 0.362 µM
  TGI: 1.24 µM
[15]
  GI50: 5.34 µM
  TGI: 26.1 µM
[16]
  GI50: 1.5 µM
  TGI: 2.93 µM
[17]
  GI50: 2.65 µM
  TGI: 8.47 µM
[18]
  GI50: 1.8 µM
  TGI: 3.45 µM
[19]
  GI50: 1.42 µM
  TGI: 3.47 µM
[20]
  GI50: 0.353 µM
  TGI: 1.12 µM
[21]
  GI50: 16.4 µM
  TGI: 37.5 µM
[22]
  GI50: 2.08 µM
  TGI: 4.27 µM
[23]
  GI50: 1.67 µM
  TGI: 3.27 µM
[57]
  GI50: 0.479 µM
  TGI: 1.67 µM
[24]
  GI50: 1.11 µM
  TGI: 2.74 µM
[25]
  GI50: 1.88 µM
  TGI: 3.84 µM
[26]
  GI50: 1.85 µM
  TGI: 4.17 µM
[27]
  GI50: 0.546 µM
  TGI: 1.97 µM
[28]
  GI50: 2 µM
  TGI: 4.21 µM
[29]
  GI50: 2.26 µM
  TGI: 5.6 µM
[58]
  GI50: 6.63 µM
  TGI: 18.3 µM
[30]
  GI50: 0.462 µM
  TGI: 0.918 µM
[31]
  GI50: 8.11 µM
  TGI: 48.4 µM
[32]
  GI50: 1.01 µM
  TGI: 2.34 µM
[33]
  GI50: 1.5 µM
  TGI: 2.85 µM
[34]
  GI50: 2.6 µM
  TGI: 7.54 µM
[35]
  GI50: 2.21 µM
  TGI: 5.59 µM
[36]
  GI50: 2.14 µM
  TGI: 5.71 µM
[37]
  GI50: 2.02 µM
  TGI: 5.32 µM
[38]
  GI50: 1.67 µM
  TGI: 3.06 µM
[39]
  GI50: 3.48 µM
  TGI: 13.5 µM
[40]
  GI50: 13 µM
  TGI: 32.1 µM
[41]
  GI50: 1.92 µM
  TGI: 3.76 µM
[42]
  GI50: 2.28 µM
  TGI: 4.45 µM
[43]
  GI50: 1.63 µM
  TGI: 3.11 µM
[44]
  GI50: 3.71 µM
  TGI: 16.3 µM
[45]
  GI50: 13.3 µM
  TGI: 26.6 µM
[46]
  GI50: 1.77 µM
  TGI: 3.53 µM
[47]
  GI50: 16.9 µM
  TGI: 41.1 µM
[48]
  GI50: 4.83 µM
  TGI: 11.3 µM
[49]
  GI50: 0.309 µM
  TGI: 1.52 µM
[50]
  GI50: 1.65 µM
  TGI: 3.53 µM
[51]
  GI50: 0.485 µM
  TGI: 1.26 µM
[52]
  GI50: 1.39 µM
  TGI: 2.7 µM
[53]
  GI50: 5.78 µM
  TGI: 20.4 µM
[54]
  GI50: 1.56 µM
  TGI: 2.94 µM
[55]
  GI50: 1.84 µM
  TGI: 4.13 µM
[56]
  GI50: 0.512 µM
  TGI: 0.992 µM
